Assay results reported in patent publication US20220274935A1, “PHARMACEUTICAL COMPOSITION FOR PREVENTING OR TREATING BONE DISEASES” (INDUSTRY FOUNDATION OF CHONNAM NATIONAL UNIVERSITY, priority 2019, published 2022).

Columns and labels:
[1] = test system: F-actin formation in mouse bone marrow cells; assay: F-actin staining for differentiation into multinuclear cells, 35D3 (PPOA); format: cell-based; conditions: 6 uM, cultured 4 to 5 days; FIG. 18
Protocol: In order to determine the activity of differentiated osteoclasts, an ability of differentiating into multinuclear cells was measured through F-actin staining. 5×10^4 mouse bone marrow cells per well was put into a 24-well plate in which glass coated with L-Lysine was placed (Corning, 354085). At the same time, the cells were treated with 6 uM of 35D3 (PPOA) and then cultured for 4 to 5 days. The differentiated cells were fixed with 4% formaldehyde for 10 minutes and washed with PBS. For an antigen-antibody reaction, the cells were subjected to a reaction in 0.1% Triton-PBS for 20 minutes, followed by a reaction with 1% BSA for 1 hour. The F-actin antibody (Thermo Fisher Scientific, A12379) was reacted for 1 hour and then washed. Cell nuclei were stained through DAPI (4′,6-Diamidino-2-Phenylindole, Dilactate, Thermo Fisher Scientific, D3571) staining, and then, photographed under a microscope. As a result, it was confirmed that the size of F-actin was different depending on the presence or absence of 35D3 (PPOA) treatment (see FIG. 18).

[2] = test system: osteoclast differentiation of monocytes isolated from the mouse bone marrow; assay: Osteoclast differentiation inhibitory ability through TRAP staining and assay (RANKL-induced monocytes); format: cell-based; conditions: for degree of osteoclast differentiation by TRAP staining: treated together with RANKL, compared to other derivatives, FIG. 1
Protocol: The bone marrow of a 10-week-old female mouse was isolated from the hip bone, femur and tibia, followed by culturing the same in α-MEM medium (Gibco, 12561-056, 10% fetal bovine serum, 1% penicillin/streptomycin) containing macrophage colony stimulating factor (M-CSF, PeproTech, 315-02, 30 ng/ml) for 3 days in order to isolate only monocytes. The isolated monocytes were treated with receptor activator of nuclear factor kappa B ligand (RANKL, PeproTech, 315-11, 50 ng/ml) to induce osteoclast differentiation. During RANKL treatment, each compound (35D35, 35D5, 35D3, and 35D8) was used for treatment and the cells were cultured for 3 or 5 days so as to confirm the degree of osteoclast differentiation.
1×10^4 monocytes isolated from the mouse bone marrow were put into a 96-well plate and treated with each compound (35D35, 35D5, 35D3, and 35D8) together with RANKL, thereby confirming the effects of each compound on osteoclast differentiation ability. Using the TRAP activity assay kit (Cosmo Bio, PMC-AK04F-COS), the activity of tartrate-resistant acid phosphatase (TRAP) with increased expression during osteoclast differentiation was confirmed. […] After staining, multinuclear cells formed during osteoclast differentiation were confirmed under a microscope. Further, each well was photographed and a differentiation area ratio per total area was determined using Image J software.
Further, the effects of the 35D35 compound having excellent osteoclast production inhibitory ability with respect to osteoclast differentiation period was investigated. Specifically, BMM was divided into 5 groups (Ctrl, Period I to IV), and cultured for 4 days in a culture medium containing 30 ng/mL M-CSF and 50 ng/mL RANKL. BMMs in Period I to IV groups were exposed to 1 μM 35D35 for 24 hours on different days, respectively. After 4 days, the cells of each group were fixed, followed by TRAP staining, and then, the presence of osteoclasts was confirmed.

[3] = test system: RANKL-induced F-actin belt formation in BMM; assay: F-actin ring (belt) formation ability of differentiated osteoclasts; format: cell-based, mouse; conditions: for inhibition of RANKL-induced F-actin belt formation: FIG. 5
Protocol: In order to confirm the activity of differentiated osteoclasts, F-actin ring formation ability was measured. Specifically, BMM was seeded on a 12 mm cover glass with or without compounds (35D3: 6 μM, 35D5 and 35D35: 2 μM), followed by M-CSF and LANKL treatment. After the osteoclasts were formed in the control, the osteoclasts were fixed in 4.0% paraformaldehyde for 15 minutes, and then incubated in 5% FBS and blocked for about 60 minutes. After washing with PBS, rhodamine-conjugated phalloidin (1:40) was added to each well to visualize a F-actin belt. After 20 minutes, the cells were incubated along with a DAPI (1:5000) solution for 5 minutes. After washing three times with PBS, cells were observed using a fluorescence microscope.
A F-actin size was measured using Image J.

preosteoclasts = assay: MTT assay for cytotoxicity assessment (cell viability); format: cell-based, mouse; conditions: MCSF 30 ng/mL, concentration of 10 uM
Protocol: MTT Assay for Cytotoxicity Assessment
After treatment of preosteoclasts with 35D35 or 35D3 (=PPOA) (1-10 uM), cell viability was evaluated. Specifically, 1×10^4 cells per well were put into a 96-well plate, and only MCSF (30 ng/mL) and PPOA were cultured by day under the indicated concentration conditions. Thereafter, a cell viability assay reagent (DoGen, EZ-3000) was used with 1/10 of the volume of the medium for treatment, and then the cells were incubated at 37° C. for 30 minutes and observed at […]. […] That is, it was confirmed that there was no cytotoxicity.

[4] = test system: osteoclast differentiation of monocytes isolated from the mouse bone marrow; assay: Osteoclast differentiation inhibitory ability of 35D3 (PPOA) through TRAP staining and analysis; format: cell-based; conditions: 3 μM, compared to group in which osteoclasts were differentiated normally
Protocol: The bone marrow of a 12-week-old female mouse was isolated from the hip bone, femur and tibia, followed by culturing the same in α-MEM medium (Gibco, 12561-056, 10% fetal bovine serum, 1% penicillin/streptomycin) containing macrophage colony stimulating factor (M-CSF, PeproTech, cat #315-02, 30 ng/ml) for 3 days in order to isolate only monocytes. The isolated monocytes were treated with RANKL (PeproTech, cat #315-11, 50 ng/ml) to induce osteoclast differentiation. Then, 35D3 (PPOA) was also used for treatment, followed by culturing the cells for 3 days or 5 days.
1×10^4 monocytes isolated from the mouse bone marrow were put into a 96-well plate and treated with RANKL to confirm the effect of 35D3 (PPOA) (3 μM) on osteoclast differentiation ability.
The activity of tartrate-resistant acid phosphatase (TRAP), which has increased expression during osteoclast differentiation, was confirmed using a TRAP activity assay kit (Sigma-Aldrich, 387A-1kt), which is shown in FIG. 16.
After staining, the multinuclear cells formed during osteoclast differentiation were observed under a microscope, and 12 images per well were photographed and combined into one well image, and a differentiation area ratio per total area was confirmed using Image J software. The differentiation area ratio per total area is shown in A of FIG. 17, and the area of TRAP-positive cells (nuclear number >3) was compared with DMSO (100%) and presented as a relative value.
Further, the number of differentiated osteoclasts was counted and determined, and this was shown in B of FIG. 17, and cells in which the number of cell nuclei contained in the differentiated osteoclasts is in the range of 3-5, 6-10, 11-20, and 21 or more, were classified and shown in C of FIG. 17.

[5] = test system: bone resorption ability of osteoclasts (mouse bone marrow cells); assay: Bone resorption assay kit, 35D3 (PPOA); format: cell-based; conditions: exposure to 3, 6, and 10 μM; FIG. 19
Protocol: Further, the bone resorption ability was confirmed using a bone resorption assay kit (Cosmo Bio, CSR-BRA). Mouse bone marrow cells were seeded on a bone resorption assay plate 48 (2×10^4 cells/well) containing 30 ng/Ml of M-CSF. […] The next day, the culture supernatant from the cells was collected on a 96-well black polypropylene micro-well plate (Thermo Fisher Scientific Nunc, Waltham, Md., USA). After mixing 50 μL of 0.1 N of NaOH, fluorescence intensity was measured with a fluorescence plate reader (Molecular Devices, San Jose, Calif., USA-model: SpectraMax i3x); and the excitation and emission wavelengths were […] and 535 nm, respectively. The absorption area was calculated in consideration of 10 randomly selected pictures per well taken at 10 magnification using Image J software (https://imagej.nih.gov/ij).

[6] = test system: ovariectomized mouse model (OVX); assay: Ovariectomized (OVX) mouse osteoporosis model, tibia micro-computed tomography; format: in vivo; conditions: OVX mice, intraperitoneal once every two days, after 4 weeks, microcomputer tomography; FIGS. 11 to 14
Protocol: An ovariectomized mouse model (OVX, ovariectomized mouse) with osteoporosis due to estrogen deficiency after ovariectomy in 8-week-old female mouse were prepared. Compounds (35D35, 35D5, and 35D3), respectively, were injected intraperitoneally once every two days to the ovariectomized mouse model. After 4 weeks, the tibia of each mouse was analyzed for bone density by microcomputer tomography.
FIGS. 11 to 14 show the micro-computed tomography results (Sham: the control in which the ovaries were not removed) and graphs for analysis of the micro-computed tomography results with regard to the tibia of the mouse models (*P<0.05, **P<0.01, and ***P<0.001 vs. the control, OVX. BMD: trabecular bone mineral density).

[7] = test system: Ctsk protein expression in osteoclasts; assay: Immunoblotting with anti-Ctsk antibody; format: cell-based, mouse; conditions: 35D35 1 μM compared to 35D3 6 μM; FIG. 9
Protocol: (§1) In order to confirm the expression degree of the osteoclast-specific gene, an mRNA expression level was measured by RT-PCR in cells treated with 35D35 (1 μM) and 35D3 (6 μM) compounds, respectively. RNA was isolated from cells differentiated into osteoclasts using an RNA extraction kit, and cDNA was synthesized from 0.5 μg of RNA, which was quantified through a spectrophotometer, using a reverse transcriptase (Takara, RR037 A). Thereafter, QRT-PCR was performed using cDNA synthesized by QuantStudio 3 real-time PCR system (Applied Biosystems). After treating the cells with lysates, immunoblotting was conducted with an anti-Ctsk antibody. At this time, β-actin was used as a loading control.

[8] = test system: hBMP2-induced osteoblast differentiation of precursor cells from mouse skull; assay: ALP staining for analysis of osteoblast differentiation ability; format: cell-based, C57BL/6J mouse; conditions: hBMP2 100 ng/ml, 7 days; FIG. 10
Protocol: After collecting cells from C57BL/6J mouse calvara at the age of 3 days, the cells were seeded on a 96-well plate in an amount of 4×10^3 cells per well, and then treated with 100 ng/ml of hBMP2 as a differentiation inducer. Simultaneously with the differentiation inducer treatment, the cells were treated with the 35D35 compound and cultured for 7 days, followed by ALP staining to assess differentiation influence. Specific experimental methods and results are as follows.
Precursor cells isolated from the mouse skull were treated with hBMP2 (Bone morphogenic protein 2, Sino biological, 10426-HNAE, 100 ng/ml) to induce differentiation into osteoblasts. Differentiated osteoblasts could be discriminated through alkaline phosphatase (ALP) staining as an osteoblast-specific protein. When the progenitor cells were treated with hBMP2, each of the 35D35 compounds was also used for treatment, followed by culturing the cells for 7 days while changing the medium every 2 to 3 days. […]
After discarding the ethanol, the remaining product was washed with HBSS, followed by adding a NBT solution (Sigma, B1911) in an amount of 100 μl per well and staining for 15 minutes. […] After ALP staining, a degree of color development was measured using Image J software, and then graphed for comparison.

[9] = test system: osteoclast-specific genes AcP5 (TRAP), NFATc1, DC-STAMP, ATP6v0d2, MMP9 and CTSK; assay: RT-PCR of osteoclast-specific gene mRNA expression; format: cell-based, mouse; conditions: 1 μM, compared to the control not treated (Ctrl); FIG. 8
Protocol: as §1

[10] = test system: bone resorption ability of osteoclasts (BMM); assay: Bone resorption assay kit (fluoresceinamine-labeled calcium phosphate plate); format: cell-based, mouse; conditions: 0.5 uM, 6 days, compared to control cells not treated (Ctrl); FIG. 7
Protocol: In addition, the bone resorption ability of 35D35 was measured using a bone resorption assay kit (Cosmo Bio, CSR-BRA). Specifically, BMM was seeded on a fluoresceinamine-labeled calcium phosphate plate, followed by 35D35 treatment with various doses. After 6 days, a fluorescence intensity was measured at absorption and emission wavelengths of 485 nm and 535 nm, respectively, using a fluorescent reader. Further, a resorption pit area was calculated using Image J. As a result, it was confirmed that the bone resorption ability was reduced by about 10% in the cells treated with 0.5 uM of 35D35, as compared to the control cells not treated with the compound (Ctrl) (see FIG. 7, scale bar=200 μm, “Con”=M-CSF+RANKL treatment group, “M”=M-CSF treatment group).

Compound | differentiation into multinuclear cells (size of F-actin) [1] | degree of osteoclast differentiation by TRAP staining [2] | inhibition of RANKL-induced F-actin belt formation ([3]; 6 μM) | cytotoxicity (cell viability, apoptosis effects) (preosteoclasts) | giant multinuclear cells ([4]; FIG. 17) | number of osteoclasts ([4]; FIG. 17) | differentiation area (TRAP-positive cells per total area) ([4]; FIGS. 16 and 17) | proportion of bone resorption area [5] | bone density of tibia vs control (OVX) [6] | bone volume of tibia vs control (OVX) [6] | Ctsk protein expression [7] | osteoclast differentiation by exposure period (TRAP staining) ([2]; 1 μM for 24 hours on different days, 4 days culture with M-CSF and RANKL, exposure in initial 24 hours, FIG. 4) | osteoclast differentiation area ratio per total area (TRAP staining, Image J) ([2]; concentration of 0.5 uM, FIG. 2) | decrease of F-actin ring formation ability ([3]; 0.5 uM, F-actin size by Image J, FIG. 6) [%] | inhibition of RANKL-induced F-actin belt formation ([3]; 2 μM) | effect on osteoblast differentiation (ALP staining intensity) [8] | amount of mRNA expression of osteoclast-specific genes AcP5 (TRAP), NFATc1, DC-STAMP, ATP6v0d2, MMP9 and CTSK [9] | reduction of bone resorption ability [10]
CC(=O)N1CCN(c2ccccc2NC(=O)COc2ccccc2Cl)CC1 [35D3, N-(2-(4-acetylpiperazin-1-yl)phenyl)-2-(2-chlorophenoxy)acetamide] | could inhibit differentiation into multinuclear cells | superior osteoclast differentiation inhibitory effects compared to other derivatives | excellent effects of inhibiting RANKL-induced F-actin belt formation | apoptosis effects were not exhibited | significantly reduced | significantly reduced | significantly reduced | significant decrease | did not exhibit higher | did not exhibit higher | – | – | – | – | – | – | – | –
CCC(=O)N1CCN(c2ccccc2NC(=O)COc2ccccc2Cl)CC1 [35D35, 2-(2-chlorophenoxy)-N-[2-(4-propionyl-1-piperazinyl)phenyl]acetamide] | – | superior osteoclast differentiation inhibitory effects compared to other derivatives | – | apoptosis effects were not exhibited | – | – | – | – | higher | higher | strongly inhibited even at a low concentration | osteoclast differentiation was inhibited for the initial 24 hours | effective osteoclast differentiation inhibitory ability | ≥ 50 | excellent effects of inhibiting RANKL-induced F-actin belt formation | did not affect osteoblasts | decreased | about 10%
